One series deals with T1, HCV NS3-4A protease (Hepatitis C virus genotype 1a, UniProt P27958).
T1 construct: against the HCV NS3-4A protease
The series is described as follows: in vitro potency against HCV NS3-4A protease. The class given is biochemical. To be noted: relative to telaprevir.

The conditions of series [1]: in vivo; cited from earlier work.

T1 sequence (P27958 1027-1657): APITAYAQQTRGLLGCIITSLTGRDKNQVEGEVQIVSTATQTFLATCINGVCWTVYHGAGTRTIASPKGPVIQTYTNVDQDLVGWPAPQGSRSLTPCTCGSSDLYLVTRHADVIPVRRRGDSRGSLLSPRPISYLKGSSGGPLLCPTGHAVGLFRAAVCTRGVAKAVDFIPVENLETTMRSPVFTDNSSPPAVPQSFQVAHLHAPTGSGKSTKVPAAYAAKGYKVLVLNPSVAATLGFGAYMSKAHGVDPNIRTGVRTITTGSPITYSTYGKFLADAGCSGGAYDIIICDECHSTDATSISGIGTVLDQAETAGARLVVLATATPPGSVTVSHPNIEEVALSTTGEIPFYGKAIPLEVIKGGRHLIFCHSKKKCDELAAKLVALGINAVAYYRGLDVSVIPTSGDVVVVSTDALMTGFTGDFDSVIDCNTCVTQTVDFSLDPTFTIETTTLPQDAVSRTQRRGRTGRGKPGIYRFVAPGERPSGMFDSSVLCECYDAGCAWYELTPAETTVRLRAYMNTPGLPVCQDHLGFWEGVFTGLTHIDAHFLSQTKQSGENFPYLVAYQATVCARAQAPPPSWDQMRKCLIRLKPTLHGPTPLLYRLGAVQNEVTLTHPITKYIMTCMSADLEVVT
T1 sequence (P27958 1658-1711): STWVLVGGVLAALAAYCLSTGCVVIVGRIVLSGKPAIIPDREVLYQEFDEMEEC

Regarding `CCCC(NC(=O)C1C2CCCC2CN1C(=O)C(NC(=O)C(NC(=O)c1cnccn1)C1CCCCC1)C(C)(C)C)C(=O)C(=O)NC1CC1` (single isomer, unassigned) [R-diastereisomer], at HCV NS3-4A protease, the “times less potent than telaprevir against the HCV NS3-4A protease” value is given as “about 30 times”. `CCC[C@H](NC(=O)[C@@H]1[C@H]2CCC[C@H]2CN1C(=O)[C@@H](NC(=O)[C@@H](NC(=O)c1cnccn1)C1CCCCC1)C(C)(C)C)C(=O)C(=O)NC1CC1` (single isomer, unassigned) [Telaprevir]: the oral bioavailability entry in series [1] is recorded as “orally bioavailable”.
